In ChEMBL document CHEMBL2440042, “Anti-proliferative activity of hydnocarpin, a natural lignan, is associated with the suppression of Wnt/β-catenin signaling pathway in colon cancer cells” (Bioorg Med Chem Lett, 2013):

Legend:
SW480 [1] = assay: Inhibition of Wnt/beta-catenin signaling pathway in human SW480 cells assessed as dvl2 protein expression at 10 uM after 12 hrs by Western blotting analysis relative to vehicle-treated control
SW480 [2] = assay: Inhibition of Wnt/beta-catenin signaling pathway in human SW480 cells assessed as GSK3-beta protein expression at 20 uM after 24 hrs by Western blotting analysis relative to vehicle-treated control

Structure (SMILES): COc1cc([C@H]2Oc3ccc(-c4cc(=O)c5c(O)cc(O)cc5o4)cc3O[C@@H]2CO)ccc1O (relative stereo)
- fold change (FC) (SW480 [1]): 1
- fold change (FC) (SW480 [2]): 1
